Assay [1] concerns the target T1, hP2X4 (Homo sapiens, UniProt Q99571).
T1 construct: expressed in transfected cells; host or cells: HEK293 cells, transient transfection
T1 sequence (Q99571 1-388): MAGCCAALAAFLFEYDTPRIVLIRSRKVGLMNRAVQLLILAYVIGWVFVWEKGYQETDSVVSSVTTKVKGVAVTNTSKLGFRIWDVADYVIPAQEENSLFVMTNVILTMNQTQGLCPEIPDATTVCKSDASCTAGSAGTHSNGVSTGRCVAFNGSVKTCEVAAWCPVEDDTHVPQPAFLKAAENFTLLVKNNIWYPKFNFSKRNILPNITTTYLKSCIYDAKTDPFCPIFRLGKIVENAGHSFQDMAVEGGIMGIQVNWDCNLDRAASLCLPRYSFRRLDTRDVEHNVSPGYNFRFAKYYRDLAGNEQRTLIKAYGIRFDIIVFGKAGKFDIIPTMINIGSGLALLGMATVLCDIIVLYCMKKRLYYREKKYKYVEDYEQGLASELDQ
Kind of assay: Fura-2AM Ca2+ response assay in HEK-hP2X4 cells. The format is cell-based. Here is the method: HEK293 cells were plated at 3.5 × 10^5 cells/well in 2 mL of complete DMEM/F12 medium and incubated (37 °C, 95% air/5% CO2, overnight). Cells were transfected with mP2X7-GFP (HEK-mP2X7), cP2X7-GFP (HEK-cP2X7) or hP2X4-EmGFP (HEK-hP2X4) plasmids, or mock transfected with an equivalent volume of sterile Milli-Q water (Merck Millipore, Burlington, NJ, USA), using Lipofectamine 3000 according to the manufacturer’s instructions. Cells were used for assays 48 h post-transfection. To determine transfection efficiency, cells were washed twice with D-PBS and data collected with an LSR Fortessa X-20 flow cytometer (BD Biosciences). The proportion of GFP positive cells was determined using FlowJo software v8.7.1 (BD Biosciences).
Ca^2+ response assays were conducted as described. […] Fura-2 fluorescence at 510 nm was measured every 5 s using a FlexStation 3 (Molecular Devices, San Jose, CA, USA). […] Relative changes in intracellular Ca^2+ were calculated using the ratio of Fura-2AM fluorescence at 510 nm following excitation at 340 nm and 380 nm (F340nm/380nm). […] To determine relative P2X-mediated Ca^2+ responses, the area under the curve from 100 to 180 s was calculated with GraphPad Prism. To determine P2Y-mediated Ca^2+ responses the area under the curve from 30 to 100 s was calculated. In both cases, ATP-induced responses were calculated by subtracting the corresponding basal response. […]

The test system of assay [2] is human uPA. More on the design: method as in PMID 33804289. Conditions: cited from earlier work.
Assay [3] concerns the target T2, P2X7 (Homo sapiens, UniProt Q99572).
T2 sequence (Q99572 1-595): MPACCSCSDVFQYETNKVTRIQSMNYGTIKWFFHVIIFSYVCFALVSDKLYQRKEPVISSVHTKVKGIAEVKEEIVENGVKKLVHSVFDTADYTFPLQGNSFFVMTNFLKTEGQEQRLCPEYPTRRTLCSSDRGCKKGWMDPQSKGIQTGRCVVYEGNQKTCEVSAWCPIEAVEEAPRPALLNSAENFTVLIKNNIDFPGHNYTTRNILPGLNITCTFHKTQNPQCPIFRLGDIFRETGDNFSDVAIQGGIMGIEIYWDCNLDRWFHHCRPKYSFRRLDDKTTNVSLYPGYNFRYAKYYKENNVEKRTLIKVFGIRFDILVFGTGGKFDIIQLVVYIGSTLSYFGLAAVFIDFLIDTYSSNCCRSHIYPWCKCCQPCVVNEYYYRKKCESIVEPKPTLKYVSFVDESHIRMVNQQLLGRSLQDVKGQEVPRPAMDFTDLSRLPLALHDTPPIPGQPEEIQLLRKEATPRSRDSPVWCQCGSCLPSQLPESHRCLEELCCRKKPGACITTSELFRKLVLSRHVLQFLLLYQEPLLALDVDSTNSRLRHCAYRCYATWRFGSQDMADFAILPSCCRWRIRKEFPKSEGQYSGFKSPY
Kind of assay: ATP-induced YO-PRO-1 uptake into human T cells (PBMCs). The format is cell-based. The arrangement: Human peripheral blood mononuclear cells (PBMCs) were pre-incubated with DMSO (vehicle) or 30 μM 6-FPHMA; endogenous in cells; host or cells: cryopreserved human PBMCs (CD3+, CD4+, CD8+ T cells), four donors. To be noted: 30 μM compound, 1 mM ATP. Here is the method: ATP-mediated uptake assays were conducted as described with either ethidium bromide or YO-PRO-1 iodide. Briefly, RPMI8226, HEK-hP2X7, HEK-mP2X7, HEK-cP2X7 or cryopreserved human peripheral blood mononuclear cells (PBMCs) were washed thrice with LDM (300× g, 5 min), resuspended in LDM and 1 × 10^6 cells were added to individual tubes. Cells were pre-incubated in the absence of compound (37 °C, 5 min) or in the presence of compound or vehicle (DMSO) (37 °C, 15 min) as indicated. […] An equal volume of ice-cold Mg^2+ stop solution was added and cells centrifuged (300× g, 5 min). Cells were washed twice in LDM (300× g, 5 min), resuspended and data were collected with an LSR Fortessa X-20 flow cytometer. MFI of ethidium^+ or YO-PRO-1^2+ was determined using FlowJo.

Data on one compound can be found in paper PMC9496321, “6-Furopyridine Hexamethylene Amiloride Is a Non-Selective P2X7 Receptor Antagonist” (Biomolecules, 2022).

As to `N=C(N)NC(=O)c1nc(-c2cc3cnccc3o2)c(N2CCCCCC2)nc1N` [6-FPHMA, 6-furopyridine-substituted 5-(N,N-hexamethylene) amiloride], the inhibition at 100 µM in assay [1] was 100%. Also, the IC50 in assay [1] (read-out: IC50, hP2X4-mediated Ca2+ flux) was determined as 3.95 ± 0.19 µM. Also, the “inhibition of human uPA” value in assay [2] is “inhibit”. Also, in assay [3], the “reduction of ATP-induced YO-PRO-1 uptake into CD3+ T cells” value came to 62 ± 3%, the “reduction of ATP-induced YO-PRO-1 uptake into CD4+ T cells” value amounted to 62 ± 3% and the “reduction of ATP-induced YO-PRO-1 uptake into CD8+ T cells” value is 62 ± 4%.
